In US8664179B2, “Identification of novel antagonist toxins of T-type calcium channel for analgesic purposes” (Centre National de la Recherche Scientifique (CNRS), priority 2009, dated 2014):
Ends that are not written are not given here.

How the values were obtained:
C57BL/6J mice [1] = assay: Tail immersion test in a water bath at 46° C. (thermal pain); format: in vivo; conditions: intrathecal injection, 10 and 100 nM, versus control group receiving physiological solution
Description: Mice are used for observing the analgesic effect of the peptide of the invention with respect to pain induced by thermal stimuli.
(§1) The mice are C57BL/6J wild-type mice and C57BL/6J CaV3.2−/− mice. The total number of mice is 10 wild-type and 10 CaV3.2−/−.
Two groups of mice (C57BL/6J) are used, one group injected intrathecally with a physiological solution comprising the peptide of the invention at a concentration of 10 and 100 nM and a second group (control group) receiving only intrathecal injection of physiological solution alone. The mice are then submitted to the test of immersion of the tail in a water bath at 46° C. The purpose of this experiment is to determine the time after which the mice react to the painful heat, thus showing the threshold of appearance of the painful signal connected with perception of heat. The same experiment is conducted in parallel on two other groups of C57BL/6J mice lacking the gene coding for the T-type calcium channel encoded by the CaV3.2 subunit. The purpose of this experiment is to show the selectivity of the peptide of the invention.

C57BL/6J mice [2] = assay: Mechanical stimulation test with von Frey bristles; format: in vivo; conditions: intrathecal injection, 10 and 100 nM, versus control group receiving physiological solution
Description: Mice are used for observing the analgesic effect of the peptide of the invention with respect to mechanical stimuli.
as §1
Two groups of mice (C57BL/6J) are used, one group injected intrathecally with a physiological solution comprising the peptide of the invention at a concentration of 10 and 100 nM and a second group (control group) only receiving intrathecal injection of the physiological solution alone. The mice are then submitted to the mechanical stimulation test with von Frey bristles. The purpose of this experiment is to determine the threshold of reaction to a mechanical stimulus of increasing intensity applied on the arch of the foot. The animals' reaction threshold is correlated with the appearance of the painful signal connected with the perception of mechanical pressure. The same experiment is conducted in parallel on two other groups of C57BL/6J mice lacking the gene coding for the T-type calcium channel encoded by the CaV3.2 subunit. The purpose of this experiment is to show the selectivity of the peptide of the invention.

[3] = target: T1, human Cav3.2 calcium channel (Homo sapiens, UniProt O95180); assay: Whole-cell patch clamp on HEK293 cells stably expressing the human Cav3.2 calcium channel; format: cell-based; conditions: CaV3.2 current, HEK293, FIG. 8
T1 construct: expressed in transfected cells
T1 sequence (O95180 whole entry): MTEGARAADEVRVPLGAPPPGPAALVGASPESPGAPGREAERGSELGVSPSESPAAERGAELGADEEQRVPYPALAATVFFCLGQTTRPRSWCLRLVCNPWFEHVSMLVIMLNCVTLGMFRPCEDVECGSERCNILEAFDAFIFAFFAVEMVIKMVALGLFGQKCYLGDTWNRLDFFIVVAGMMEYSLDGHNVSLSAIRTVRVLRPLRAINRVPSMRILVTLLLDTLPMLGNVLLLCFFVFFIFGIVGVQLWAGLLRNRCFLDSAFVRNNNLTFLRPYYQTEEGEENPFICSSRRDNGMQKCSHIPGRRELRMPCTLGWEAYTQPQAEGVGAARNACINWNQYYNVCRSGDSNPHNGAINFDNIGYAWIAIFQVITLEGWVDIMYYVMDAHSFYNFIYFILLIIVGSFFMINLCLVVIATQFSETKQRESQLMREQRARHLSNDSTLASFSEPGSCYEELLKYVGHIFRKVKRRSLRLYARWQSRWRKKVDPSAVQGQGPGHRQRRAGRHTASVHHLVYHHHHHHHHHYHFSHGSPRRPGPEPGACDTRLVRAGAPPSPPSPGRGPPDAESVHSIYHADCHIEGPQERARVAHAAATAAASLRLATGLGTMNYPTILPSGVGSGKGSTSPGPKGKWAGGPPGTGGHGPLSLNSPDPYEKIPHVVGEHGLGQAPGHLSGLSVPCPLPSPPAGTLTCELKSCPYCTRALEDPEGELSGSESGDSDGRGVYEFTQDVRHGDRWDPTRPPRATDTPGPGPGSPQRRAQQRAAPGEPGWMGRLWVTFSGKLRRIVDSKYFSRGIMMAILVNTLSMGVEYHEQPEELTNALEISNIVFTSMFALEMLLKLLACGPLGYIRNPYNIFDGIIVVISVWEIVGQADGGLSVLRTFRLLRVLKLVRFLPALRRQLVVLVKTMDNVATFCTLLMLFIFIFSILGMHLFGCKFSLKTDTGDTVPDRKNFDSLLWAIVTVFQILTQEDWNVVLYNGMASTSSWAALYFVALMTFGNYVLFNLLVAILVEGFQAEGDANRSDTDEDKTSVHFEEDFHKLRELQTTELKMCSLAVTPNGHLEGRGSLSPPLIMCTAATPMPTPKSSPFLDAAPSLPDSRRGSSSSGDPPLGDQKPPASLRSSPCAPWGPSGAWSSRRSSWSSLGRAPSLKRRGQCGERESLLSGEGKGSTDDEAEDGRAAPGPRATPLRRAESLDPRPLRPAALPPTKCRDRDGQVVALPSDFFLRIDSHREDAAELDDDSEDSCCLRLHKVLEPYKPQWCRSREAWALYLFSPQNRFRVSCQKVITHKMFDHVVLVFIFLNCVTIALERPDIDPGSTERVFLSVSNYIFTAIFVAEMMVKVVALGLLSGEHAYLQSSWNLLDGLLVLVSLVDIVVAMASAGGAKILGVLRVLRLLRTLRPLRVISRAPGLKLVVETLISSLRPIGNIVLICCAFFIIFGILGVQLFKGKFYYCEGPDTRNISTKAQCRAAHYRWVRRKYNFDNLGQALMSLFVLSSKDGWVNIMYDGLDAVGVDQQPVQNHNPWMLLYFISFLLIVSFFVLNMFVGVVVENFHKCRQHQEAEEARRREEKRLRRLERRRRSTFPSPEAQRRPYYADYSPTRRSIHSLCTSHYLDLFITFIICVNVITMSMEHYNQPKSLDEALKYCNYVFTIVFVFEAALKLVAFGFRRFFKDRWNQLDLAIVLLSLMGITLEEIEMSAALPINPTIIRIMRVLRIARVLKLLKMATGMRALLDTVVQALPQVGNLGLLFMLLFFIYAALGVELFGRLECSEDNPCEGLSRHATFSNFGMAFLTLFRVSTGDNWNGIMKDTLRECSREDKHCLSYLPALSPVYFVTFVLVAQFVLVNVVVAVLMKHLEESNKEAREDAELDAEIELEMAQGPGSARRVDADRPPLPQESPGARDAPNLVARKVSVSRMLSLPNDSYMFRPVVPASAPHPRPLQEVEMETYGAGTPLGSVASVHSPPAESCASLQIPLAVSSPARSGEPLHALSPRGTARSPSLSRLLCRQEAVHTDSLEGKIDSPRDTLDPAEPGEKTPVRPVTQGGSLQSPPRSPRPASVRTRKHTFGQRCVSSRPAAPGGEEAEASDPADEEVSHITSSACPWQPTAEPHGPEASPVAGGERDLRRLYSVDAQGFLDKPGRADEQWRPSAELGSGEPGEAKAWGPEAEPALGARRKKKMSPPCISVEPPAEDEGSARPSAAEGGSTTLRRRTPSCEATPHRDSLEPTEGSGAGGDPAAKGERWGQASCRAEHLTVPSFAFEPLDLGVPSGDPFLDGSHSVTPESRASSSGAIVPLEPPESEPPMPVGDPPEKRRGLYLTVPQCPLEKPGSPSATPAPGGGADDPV
Description: Starting from this stock concentration, the peptides were diluted in a solution corresponding to the extracellular solution used for the patch clamp analysis. This solution has the following composition (in mM): NaCl 135, TEACl 20, HEPES 10, CaCl2 2, MgCl21 (pH 7.3 with TEAOH).
HEK293 cells (ATCC) stably expressing the complementary DNA sequence of the human Cav3.2 calcium channel were used. At each passage of the cell line, cells were seeded at low density on culture dishes for “patch clamp” analysis (molecular electrophysiology).
The electrophysiological recordings were made by the “patch clamp” technique in the “whole cell” configuration using an Axopatch200B amplifier controlled by a Digidata interface and the pClamp10 software (Molecular Devices). The extracellular recording solution containing 2 mM calcium is described above.
The intrapipette solution used for the recordings has the following composition: CsCl 130 mM, HEPES 10 mM, EGTA 10 mM, CaCl2 2 mM, MgCl2 1 mM, MgATP 4 mM, TrisGTP 0.3 mM (pH 7.3 with NaOH). The results are analyzed using [sequence] (registered trademark), EXCEL (registered trademark) and [sequence] (registered trademark) software. […]
These “dose-effect” curves were analyzed with [sequence] […]

human Cav3.2 = target: T2, human Cav3.2 (Homo sapiens, UniProt O95180); assay: Double microelectrode imposed-voltage recording of CaV3.2 current in Xenopus oocytes; format: cell-based; conditions: 5 mM barium, depolarization at -30 mV from -100 mV, after 30 seconds (FIG. 2)
T2 construct: expressed in transfected cells; host or cells: Xenopus laevis oocytes (cDNA injection)
T2 sequence (O95180 whole entry): as above
Description: The current is recorded in a solution containing 5 mM barium as charge carrier and it is produced by depolarization at −30 mV starting from a rest potential of −100 mV.
The cDNA coding for human Cav3.2 is injected into oocytes of Xenopus (Xenopus laevis) as described in Altier, C., Dubel, S. J., Barrére, C., Jarvis, S. E., Stotz, S. C., Spaetgens, R. L., Scott, J. D., Cornet, V., De Waard, M., Zamponi, G. W., Nargeot, J. and Bourinet, E. (2002) “Trafficking of L-type calcium channels mediated by postsynaptic scaffolding protein AKAP79.” J. Biol. Chem., 277, 33598-33603 (Ref 5) and in Dubel, S. J., Altier, C., Chaumont, S., Lory, P., Bourinet, E. and Nargeot, J. (2004) “Plasma Membrane Expression of T-type Calcium Channel {alpha}1 Subunits Is Modulated by High Voltage-activated Auxiliary Subunits.” J Biol Chem, 279, 29263-29269 (Ref 6). The currents are recorded by the technique of imposed voltage by double microelectrode using a [sequence]500 amplifier (registered trademark) (MOLECULAR DEVICES (registered trademark)) controlled by the PCLAMP9 software (registered trademark). […] The fractions (10 μl) are applied manually, directly on the oocyte recorded by means of a pipette.

Row | Compound | time to react to heat (C57BL/6J mice [1]) | threshold of perception of mechanical pressure (C57BL/6J mice [2]) | Hill number (slope of dose-effect curve) [3] | current of the Cav3.2 channel after application of the toxin (human Cav3.2)
1 | YCQKFLWTCDSERPCCEGLVCRLWCKIN (disulfide (positions not given here); not fully specified (bridges); also: 3 disulfide bridges between the 6 cysteines, pairing not given here) [peptide of sequence SEQ ID NO 1] | significantly longer | significantly higher | – | –
2 | CC[C@H](C)[C@H](NC(=O)[C@H](CCCCN)NC(=O)[C@@H]1CSSC[C@@H]2NC(=O)[C@@H]3CCCN3C(=O)[C@H](CCCNC(=N)N)NC(=O)[C@H](CCC(=O)O)NC(=O)[C@H](CO)NC(=O)[C@H](CC(=O)O)NC(=O)[C@@H]3CSSC[C@H](NC(=O)[C@H](C(C)C)NC(=O)[C@H](CC(C)C)NC(=O)CNC(=O)[C@H](CCC(=O)O)NC(=O)[C@H](CSSC[C@H](NC(=O)[C@@H](N)Cc4ccc(O)cc4)C(=O)N[C@@H](CCC(N)=O)C(=O)N[C@@H](CCCCN)C(=O)N[C@@H](Cc4ccccc4)C(=O)N[C@@H](CC(C)C)C(=O)N[C@@H](Cc4c[nH]c5ccccc45)C(=O)N[C@@H]([C@@H](C)O)C(=O)N3)NC2=O)C(=O)N[C@@H](CCCNC(=N)N)C(=O)N[C@@H](CC(C)C)C(=O)N[C@@H](Cc2c[nH]c3ccccc23)C(=O)N1)C(=O)N[C@@H](CC(N)=O)C(=O)O [synthetic peptide] | – | – | 0.89 | –
3 | CC[C@H](C)[C@H](NC(=O)[C@H](CCCCN)NC(=O)[C@@H]1CSSC[C@@H]2NC(=O)[C@@H]3CCCN3C(=O)[C@H](CCCNC(=N)N)NC(=O)[C@H](CCC(=O)O)NC(=O)[C@H](CO)NC(=O)[C@H](CC(=O)O)NC(=O)[C@@H]3CSSC[C@H](NC(=O)[C@H](C(C)C)NC(=O)[C@H](CC(C)C)NC(=O)CNC(=O)[C@H](CCC(=O)O)NC(=O)[C@H](CSSC[C@H](NC(=O)[C@@H](N)Cc4ccc(O)cc4)C(=O)N[C@@H](CCC(N)=O)C(=O)N[C@@H](CCCCN)C(=O)N[C@@H](Cc4ccccc4)C(=O)N[C@@H](CC(C)C)C(=O)N[C@@H](Cc4c[nH]c5ccccc45)C(=O)N[C@@H]([C@@H](C)O)C(=O)N3)NC2=O)C(=O)N[C@@H](CCCNC(=N)N)C(=O)N[C@@H](CC(C)C)C(=O)N[C@@H](Cc2c[nH]c3ccccc23)C(=O)N1)C(=O)N[C@@H](CC(N)=O)C(=O)O [natural toxin] | – | – | 0.87 | strongly inhibited
